In brackets after ≈: the same amount, converted by molar mass.
Columns and labels:
Assay in all cases: in vitro antibacterial activity, minimal inhibitory concentration
Assay type in all cases: cell-based
Pseudomonas UI 18 = details: UI18; Pseudomonas UI 18, in vitro
Source text: (§1) The compounds of the invention are new chemical compounds that are used as pharmacological agents and especially as broad spectrum antibacterial agents. They are active in vitro against strains of both gram-positive and gram-negative bacteria.
(§2) Minimal Inhibitory Concentration (μg/ml)

Entero. cloacae = details: for MIC: Enterobacter cloacae
Source text: as §1, §2

Staph. aureus S18733 = details: for MIC: Staphylococcus aureus
Source text: as §1, §2

Strep. fec. = system: Strep. fec.
Source text: as §1, §2

E. coli Brig = details: for MIC: Escherichia coli
Source text: as §1, §2

Serr. marces. = system: Serr. marces.
Source text: as §1, §2

Klebs. pneu. = system: Klebs. pneu.
Source text: as §1, §2

Prot. vulg. = system: Prot. vulg.
Source text: as §1, §2

Pseudomonas BRK 12-4-4 = details: Pseudomonas BRK 12-4-4, in vitro; for MIC: BRK1244
Source text: as §1, §2

Pseudomonas #28 = details: Pseudomonas #28, in vitro; read-out: Minimal Inhibitory Concentration
Source text: as §1, §2

E. coli Vogel = details: for MIC: Escherichia coli
Source text: as §1, §2

Staph. aureus UC-76 = details: Staph. aureus UC-76, in vitro; for MIC: Staphylococcus aureus, UC76
Source text: as §1, §2

CC(=O)NC(CCC(N)=O)C(=O)Nc1ccc(-c2ncc(C(=O)N[C@@H](C(=O)NC3C(=O)N4C(C(=O)O)=C(CSc5nnnn5C)CSC34)c3ccccc3)c(O)n2)cc1 (mixture of isomers) [Example 23, N-[2-[4-(N-Acetyl-DL-glutaminylamino)phenyl]-4-hydroxy-5-pyrimidinylcarbonyl]-7-[D-2-amino-2-phenylacetamido]-3-[[1-methyl-1H-tetrazol-5-yl)thio]methyl]-3-cephem-4-carboxylic acid]
MIC (Pseudomonas UI 18): 6.3 µg/mL | MIC (Entero. cloacae): 6.3 µg/mL | MIC (Staph. aureus S18733): 12.5 µg/mL | MIC (Strep. fec.): 50 µg/mL | MIC (E. coli Brig): 3.1 µg/mL | MIC (Serr. marces.): 50 µg/mL | MIC (Klebs. pneu.): 3.1 µg/mL | MIC (Prot. vulg.): 12.5 µg/mL | MIC (Pseudomonas BRK 12-4-4): 12.5 µg/mL | MIC (Pseudomonas #28): 6.3 µg/mL | MIC (E. coli Vogel): 0.8 µg/mL | MIC (Staph. aureus UC-76): 3.1 µg/mL

O=C(O)Cn1nnnc1SCC1=C(C(=O)O)N2C(=O)C(NC(=O)[C@H](NC(=O)c3cnc(-c4ccc(NC(=O)CN5CCCC5=O)cc4)nc3O)c3ccccc3)C2SC1 (some centres unmarked) [Example 42]
MIC (Pseudomonas UI 18): 6.3 µg/mL (≈ 7.47 µM) | MIC (Entero. cloacae): 6.3 µg/mL (≈ 7.47 µM) | MIC (Staph. aureus S18733): 25 µg/mL (≈ 29.6 µM) | MIC (Strep. fec.): > 50 µg/mL | MIC (E. coli Brig): 6.3 µg/mL (≈ 7.47 µM) | MIC (Serr. marces.): 50 µg/mL (≈ 59.3 µM) | MIC (Klebs. pneu.): 3.1 µg/mL (≈ 3.67 µM) | MIC (Prot. vulg.): 1.6 µg/mL (≈ 1.9 µM) | MIC (Pseudomonas BRK 12-4-4): 12.5 µg/mL (≈ 14.8 µM) | MIC (Pseudomonas #28): 6.3 µg/mL (≈ 7.47 µM) | MIC (E. coli Vogel): 3.1 µg/mL (≈ 3.67 µM) | MIC (Staph. aureus UC-76): 12.5 µg/mL (≈ 14.8 µM)

NC(=O)CC[C@H](N)C(=O)Nc1ccc(-c2ncc(C(=O)N[C@@H](C(=O)NC3C(=O)N4C(C(=O)O)=C(CSc5nnnn5CC(=O)O)CSC34)c3ccccc3)c(O)n2)cc1 (stereo partly drawn) [Example 41, N-[2-[4-(L-Glutaminylamino)phenyl]-4-hydroxy-5-pyrimidinylcarbonyl]-7-[D-2-amino-2-phenylacetamido]-3-[[(1-carboxymethyl-1H-tetrazol-5-yl)thio]methyl]-3-cephem-4-carboxylic acid]
MIC (Pseudomonas UI 18): 12.5 µg/mL (≈ 14.8 µM) | MIC (Entero. cloacae): 12.5 µg/mL (≈ 14.8 µM) | MIC (Staph. aureus S18733): 25 µg/mL (≈ 29.5 µM) | MIC (Strep. fec.): > 50 µg/mL | MIC (E. coli Brig): 12.5 µg/mL (≈ 14.8 µM) | MIC (Serr. marces.): 50 µg/mL (≈ 59 µM) | MIC (Klebs. pneu.): 3.1 µg/mL (≈ 3.66 µM) | MIC (Prot. vulg.): 1.6 µg/mL (≈ 1.89 µM) | MIC (Pseudomonas BRK 12-4-4): 12.5 µg/mL (≈ 14.8 µM) | MIC (Pseudomonas #28): 12.5 µg/mL (≈ 14.8 µM) | MIC (E. coli Vogel): 3.1 µg/mL (≈ 3.66 µM) | MIC (Staph. aureus UC-76): 12.5 µg/mL (≈ 14.8 µM)

CC(=O)N[C@H](C)C(=O)Nc1ccc(-c2ncc(C(=O)N[C@@H](C(=O)N[C@@H]3C(=O)N4C(C(=O)O)=C(COC(C)=O)CS[C@H]34)c3ccccc3)c(O)n2)cc1 [Example 1, N-[2-[4-(N-Acetyl-D-alanylamino)phenyl]-4-hydroxy-5-pyrimidinyl-carbonyl]-7-[D-2-amino-2-phenylacetamido]-3-acetoxymethyl-3-cephem-4-carboxylic acid]
MIC (Pseudomonas UI 18): 3.1 µg/mL (≈ 4.24 µM) | MIC (Entero. cloacae): 50 µg/mL (≈ 68.3 µM) | MIC (Staph. aureus S18733): 3.1 µg/mL (≈ 4.24 µM) | MIC (Strep. fec.): 50 µg/mL (≈ 68.3 µM) | MIC (E. coli Brig): 25 µg/mL (≈ 34.2 µM) | MIC (Serr. marces.): 12.5 µg/mL (≈ 17.1 µM) | MIC (Klebs. pneu.): 200 µg/mL (≈ 273 µM) | MIC (Prot. vulg.): 12.5 µg/mL (≈ 17.1 µM) | MIC (Pseudomonas BRK 12-4-4): 3.1 µg/mL (≈ 4.24 µM) | MIC (Pseudomonas #28): 3.1 µg/mL (≈ 4.24 µM) | MIC (E. coli Vogel): 6.3 µg/mL (≈ 8.61 µM) | MIC (Staph. aureus UC-76): 0.8 µg/mL (≈ 1.09 µM)

CC(=O)NC(C)(C)C(=O)Nc1ccc(-c2ncc(C(=O)N[C@@H](C(=O)NC3C(=O)N4C(C(=O)O)=C(CSc5nnnn5C)CSC34)c3ccccc3)c(O)n2)cc1 (some centres unmarked) [Example 28]
MIC (Pseudomonas UI 18): 6.3 µg/mL (≈ 7.86 µM) | MIC (Entero. cloacae): 6.3 µg/mL (≈ 7.86 µM) | MIC (Staph. aureus S18733): 6.3 µg/mL (≈ 7.86 µM) | MIC (Strep. fec.): 50 µg/mL (≈ 62.4 µM) | MIC (E. coli Brig): 12.5 µg/mL (≈ 15.6 µM) | MIC (Serr. marces.): 50 µg/mL (≈ 62.4 µM) | MIC (Klebs. pneu.): 6.3 µg/mL (≈ 7.86 µM) | MIC (Prot. vulg.): 25 µg/mL (≈ 31.2 µM) | MIC (Pseudomonas BRK 12-4-4): 6.3 µg/mL (≈ 7.86 µM) | MIC (Pseudomonas #28): 3.1 µg/mL (≈ 3.87 µM) | MIC (E. coli Vogel): 3.1 µg/mL (≈ 3.87 µM) | MIC (Staph. aureus UC-76): 3.1 µg/mL (≈ 3.87 µM)

CC(=O)NCC(=O)Nc1ccc(-c2ncc(C(=O)N[C@@H](C(=O)N[C@@H]3C(=O)N4C(C(=O)O)=C(COC(C)=O)CS[C@H]34)c3ccccc3)c(O)n2)cc1 [Example 7, N-[2-[4-(N-Acetylglycylamino)phenyl]-4-hydroxy-5-pyrimidinylcarbonyl]-7-[D-2-amino-2-phenylacetamido]-3-acetoxymethyl-3-cephem-4-carboxylic acid]
MIC (Pseudomonas UI 18): 12.5 µg/mL (≈ 17.4 µM) | MIC (Entero. cloacae): 25 µg/mL (≈ 34.8 µM) | MIC (Strep. fec.): 50 µg/mL (≈ 69.7 µM) | MIC (Klebs. pneu.): 6.3 µg/mL (≈ 8.78 µM)

CC(=O)N1C[C@H](O)C[C@H]1C(=O)Nc1ccc(-c2ncc(C(=O)N[C@@H](C(=O)NC3C(=O)N4C(C(=O)O)=C(CSc5nnnn5CC(=O)O)CS[C@H]34)c3ccccc3)c(O)n2)cc1 (stereo partly drawn) [Example 36, N-[2-[4-(N-Acetyl-L-hydroxyprolylamino)phenyl]-4-hydroxy-5-pyrimidinylcarbonyl]-7-[D-2-amino-2-phenylacetamido]-3-[[(1-carboxymethyl-1H-tetrazol-5-yl)thio]methyl]-3-cephem-4-carboxylic acid]
Minimal Inhibitory Concentration (Entero. cloacae): 12.5 µg/mL | Minimal Inhibitory Concentration (Staph. aureus S18733): 25 µg/mL | Minimal Inhibitory Concentration (Strep. fec.): > 50 µg/mL | Minimal Inhibitory Concentration (E. coli Brig): 12.5 µg/mL | Minimal Inhibitory Concentration (Serr. marces.): 50 µg/mL | Minimal Inhibitory Concentration (Klebs. pneu.): 6.3 µg/mL | Minimal Inhibitory Concentration (Prot. vulg.): 6.3 µg/mL | Minimal Inhibitory Concentration (Pseudomonas BRK 12-4-4): 12.5 µg/mL | Minimal Inhibitory Concentration (E. coli Vogel): 6.3 µg/mL | Minimal Inhibitory Concentration (Staph. aureus UC-76): 12.5 µg/mL

Source: patent US4311699A, “Aminoacid derivatives of cephalosporin compounds” (priority 1980, dated 1982)
